According to PubChem BioAssay (NCI):
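Cultured in 96-well plates, cells were exposed to test compound for 48 hours across five concentrations. Definition used: TGI = concentration required for complete inhibition of growth.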

How the values were obtained:
Experiment in all cases: NCI-60 cell line screen, 48 h
SF-295 CNS = tested on: SF-295 CNS
RXF 393 renal = tested on: RXF 393 renal
ACHN renal = tested on: ACHN renal
U251 CNS = tested on: U251 CNS
DMS 273 small cell lung = tested on: DMS 273 small cell lung
LXFL 529 NSCLC = tested on: LXFL 529 NSCLC
OVCAR-8 ovarian = tested on: OVCAR-8 ovarian
SW-620 colon = tested on: SW-620 colon
SN12C renal = tested on: SN12C renal
K-562 leukemia = tested on: K-562 leukemia
UACC-62 melanoma = tested on: UACC-62 melanoma
HCC-2998 colon = tested on: HCC-2998 colon
HCT-15 colon = tested on: HCT-15 colon
CCRF-CEM leukemia = tested on: CCRF-CEM leukemia
DLD-1 colon = tested on: DLD-1 colon
NCI-H23 lung = tested on: NCI-H23 lung
DMS 114 small cell lung = tested on: DMS 114 small cell lung
A549 NSCLC = tested on: A549 NSCLC
NCI-H460 lung = tested on: NCI-H460 lung
SR leukemia = tested on: SR leukemia
MOLT-4 leukemia = tested on: MOLT-4 leukemia
A498 renal = tested on: A498 renal
IGROV1 ovarian = tested on: IGROV1 ovarian
OVCAR-4 ovarian = tested on: OVCAR-4 ovarian
EKVX NSCLC = tested on: EKVX NSCLC
SNB-78 CNS = tested on: SNB-78 CNS
RPMI-8226 leukemia = tested on: RPMI-8226 leukemia
KM12 colon = tested on: KM12 colon
CAKI-1 renal = tested on: CAKI-1 renal
786-0 renal = tested on: 786-0 renal
HOP-62 NSCLC = tested on: HOP-62 NSCLC
SK-MEL-2 melanoma = tested on: SK-MEL-2 melanoma
COLO 205 colon = tested on: COLO 205 colon
UACC-257 melanoma = tested on: UACC-257 melanoma
HCT-116 colon = tested on: HCT-116 colon
HT29 colon = tested on: HT29 colon
KM20L2 colon = tested on: KM20L2 colon
M14 melanoma = tested on: M14 melanoma
HL-60(TB) leukemia = tested on: HL-60(TB) leukemia
XF 498 CNS = tested on: XF 498 CNS
UO-31 renal = tested on: UO-31 renal
SK-MEL-28 melanoma = tested on: SK-MEL-28 melanoma
M19-MEL melanoma = tested on: M19-MEL melanoma
SNB-75 CNS = tested on: SNB-75 CNS
SF-539 CNS = tested on: SF-539 CNS
OVCAR-3 ovarian = tested on: OVCAR-3 ovarian
TK-10 renal = tested on: TK-10 renal
SK-OV-3 ovarian = tested on: SK-OV-3 ovarian
OVCAR-5 ovarian = tested on: OVCAR-5 ovarian
HOP-92 NSCLC = tested on: HOP-92 NSCLC
NCI-H226 lung = tested on: NCI-H226 lung
MALME-3M melanoma = tested on: MALME-3M melanoma
LOX IMVI melanoma = tested on: LOX IMVI melanoma
NCI-H522 lung = tested on: NCI-H522 lung
SF-268 CNS = tested on: SF-268 CNS
SNB-19 CNS = tested on: SNB-19 CNS
SK-MEL-5 melanoma = tested on: SK-MEL-5 melanoma
HOP-18 NSCLC = tested on: HOP-18 NSCLC

Measured: TGI

COC(=O)c1cc(C)c(C)c2c1NC(=O)CNC2=O
91.6 µM: UO-31 renal
not listed: TK-10 renal | SK-OV-3 ovarian | OVCAR-5 ovarian | HOP-92 NSCLC | NCI-H226 lung | MALME-3M melanoma | LOX IMVI melanoma | NCI-H522 lung | SF-268 CNS | SNB-19 CNS | SK-MEL-5 melanoma | HOP-18 NSCLC
> 100 µM: all other assays above

CCOc1ccc2c(c1)[n+]([O-])c(-c1nc3ccccc3s1)c(N)[n+]2[O-]
96.3 µM: UO-31 renal
70.1 µM: HOP-92 NSCLC
63.3 µM: NCI-H522 lung
86.6 µM: XF 498 CNS
92.1 µM: HOP-18 NSCLC
93.8 µM: SK-MEL-5 melanoma
not listed: RXF 393 renal | SR leukemia | HCT-116 colon
> 100 µM: all other assays above

O=C1NC2OCC(O)C(O)C2O1 (stereo not drawn)
not listed: RXF 393 renal | RPMI-8226 leukemia | XF 498 CNS | NCI-H226 lung
> 100 µM: all other assays above

C=CCc1cc(-c2cc(CC=C)c(O)c(CNCCCl)c2)cc(CNCCCl)c1O
33.9 µM: KM20L2 colon
30.7 µM: U251 CNS
33.8 µM: SF-295 CNS
29.3 µM: LXFL 529 NSCLC
60.5 µM: SF-268 CNS
53.4 µM: MOLT-4 leukemia
52.1 µM: K-562 leukemia
57 µM: DLD-1 colon
32.4 µM: UACC-257 melanoma
34.6 µM: HCT-116 colon
51.4 µM: IGROV1 ovarian
81.8 µM: CCRF-CEM leukemia
46.2 µM: ACHN renal
57.5 µM: TK-10 renal
31.3 µM: NCI-H23 lung
32.7 µM: M14 melanoma
32.9 µM: SK-MEL-28 melanoma
35.4 µM: NCI-H226 lung
32.1 µM: COLO 205 colon
31.2 µM: HOP-92 NSCLC
36.5 µM: HT29 colon
44.3 µM: SW-620 colon
56.7 µM: OVCAR-4 ovarian
32.3 µM: M19-MEL melanoma
61.9 µM: RPMI-8226 leukemia
28.6 µM: SK-MEL-5 melanoma | UO-31 renal
39.5 µM: MALME-3M melanoma
42.2 µM: DMS 114 small cell lung
43.9 µM: OVCAR-3 ovarian
> 100 µM: SNB-78 CNS | SNB-19 CNS | 786-0 renal | SNB-75 CNS
35.2 µM: SK-MEL-2 melanoma
52.3 µM: A498 renal
44.8 µM: HL-60(TB) leukemia
37 µM: NCI-H460 lung
32.8 µM: NCI-H522 lung
31.1 µM: HCT-15 colon
76.1 µM: A549 NSCLC
33.2 µM: HOP-62 NSCLC
44.6 µM: SN12C renal
31.6 µM: LOX IMVI melanoma
31.4 µM: HCC-2998 colon | KM12 colon
49.4 µM: OVCAR-8 ovarian
28.3 µM: UACC-62 melanoma
